Results from ChEMBL document CHEMBL1147292, “The structure of ulithiacyclamide B. Antitumor evaluation of cyclic peptides and macrolides from Lissoclinum patella” (J Nat Prod, 1989).
≈ marks a conversion by molar mass, not a printed value.

Experiments:
[1] = Cytotoxicity against human H116 cells at 10 ug/disk by corbett disk diffusion assay; type: functional
MC-38 [2] = assay: Cytotoxicity against mouse C38 cells at 10 ug/disk by corbett disk diffusion assay; type: functional
L1210 [3] = assay: Cytotoxicity against mouse L1210 cells at 10 ug/disk by corbett disk diffusion assay; type: functional
KB = assay: Cytotoxicity against human KB cells; type: functional, cell-based
MC-38 [4] = assay: Cytotoxicity against mouse C38 cells at 200 ug/disk by corbett disk diffusion assay; type: functional
L1210 [5] = assay: Cytotoxicity against mouse L1210 cells at 200 ug/disk by corbett disk diffusion assay; type: functional
[6] = Cytotoxicity against human H116 cells at 200 ug/disk by corbett disk diffusion assay; type: functional
MC-38 [7] = assay: Cytotoxicity against mouse C38 cells at 1.5 ug/disk by corbett disk diffusion assay; type: functional
L1210 [8] = assay: Cytotoxicity against mouse L1210 cells at 1.5 ug/disk by corbett disk diffusion assay; type: functional
L1210 [9] = assay: Cytotoxicity against mouse L1210 cells at 0.15 ug/disk by corbett disk diffusion assay; type: functional
[10] = Cytotoxicity against mouse Panc03 cells at 1.5 ug/disk by corbett disk diffusion assay; type: functional
L1210 [11] = assay: Cytotoxicity against mouse L1210 cells at 5 ug/disk by corbett disk diffusion assay; type: functional
MC-38 [12] = assay: Cytotoxicity against mouse C38 cells at 5 ug/disk by corbett disk diffusion assay; type: functional
[13] = Cytotoxicity against human H116 cells at 5 ug/disk by corbett disk diffusion assay; type: functional
MC-38 [14] = assay: Cytotoxicity against mouse C38 cells at 100 ug/disk by corbett disk diffusion assay; type: functional
L1210 [15] = assay: Cytotoxicity against mouse L1210 cells at 100 ug/disk by corbett disk diffusion assay; type: functional
[16] = Cytotoxicity against human H116 cells at 100 ug/disk by corbett disk diffusion assay; type: functional

Question: Which Activity [1] does the source give for CC(C)C[C@H]1NC(=O)[C@H]2N=C(O[C@@H]2C)[C@H]2CSSC[C@@H](NC(=O)c3csc1n3)C1=N[C@H](C(=O)N[C@H](Cc3ccccc3)c3nc(cs3)C(=O)N2)[C@@H](C)O1 [ULITHIACYCLAMIDE B] here?
Answer: The Activity was 280 Zone units.

Question: And the Activity (MC-38 [2])?
Answer: Its Activity is 290 Zone units.

Question: And the Activity (L1210 [3])?
Answer: Its Activity is 270 Zone units.

Question: And the IC50 (KB)?
Answer: Its IC50 is 0.017 µg/mL (≈ 0.0213 µM).

Question: What does the source list for CC[C@H](C)[C@@H]1NC(=O)c2csc(n2)[C@@H](C)NC(=O)[C@H]2N=C(O[C@@H]2C)[C@H](C(C)C)NC(=O)c2csc(n2)[C@@H](Cc2ccccc2)NC(=O)[C@H]2N=C1O[C@@H]2C [PATELLAMIDE C]?
Answer: Activity (MC-38 [4]): 170 Zone units; Activity (L1210 [5]): 260 Zone units; Activity [6]: 0 Zone units; IC50 (KB): 6 µg/mL (≈ 7.86 µM)

Question: For CC(C)C[C@H]1NC(=O)[C@H]2N=C(O[C@@H]2C)[C@H]2CSSC[C@@H](NC(=O)c3csc1n3)C1=N[C@H](C(=O)N[C@H](CC(C)C)c3nc(cs3)C(=O)N2)[C@@H](C)O1 [ULITHIACYCLAMIDE], which IC50 (KB) is on record?
Answer: Its IC50 is 0.035 µg/mL (≈ 0.0459 µM).

Question: What does the source list for O=c1[nH]cc(F)c(=O)[nH]1 [FLUOROURACIL]?
Answer: Activity (MC-38 [7]): 800 Zone units; Activity (L1210 [8]): 0 Zone units

Question: What does the source list for Nc1ccn([C@@H]2O[C@H](CO)[C@@H](O)[C@@H]2O)c(=O)n1 [CYTARABINE]?
Answer: Activity (L1210 [9]): 550 Zone units; Activity [10]: 0 Zone units

Question: Which Activity (L1210 [11]) does the source give for COC1/C(C)=C/C=C/C(C)C(C(C)(O)/C=C(/C)Cc2csc(C3(C)OC3C)n2)OC(=O)C(C)(C(=O)OC(C)C(C)O)CCC(C)CC(O)C(C)C(=O)C(C)/C=C\CC(C)C(O)C1O (centres undefined) [PATELLAZOLE B] here?
Answer: The Activity was 300 Zone units.

Question: What about the Activity (MC-38 [12]) of the same molecule?
Answer: Its Activity is 460 Zone units.

Question: What about the Activity [13] of the same molecule?
Answer: The Activity was 460 Zone units.

Question: And the IC50 (KB)?
Answer: Its IC50 is 0.0003 µg/mL (≈ 0.000332 µM).

Question: Which Activity (MC-38 [14]) does the source give for CC[C@H](C)[C@@H]1NC(=O)c2csc(n2)[C@@H](C)NC(=O)[C@H]2N=C(O[C@@H]2C)[C@H](CC(C)C)NC(=O)c2csc(n2)[C@@H](Cc2ccccc2)NC(=O)[C@H]2N=C1O[C@@H]2C [PATELLAMIDE B] here?
Answer: Its Activity is 150 Zone units.

Question: And the Activity (L1210 [15])?
Answer: Its Activity is 50 Zone units.

Question: And the Activity [16]?
Answer: The Activity was 0 Zone units.

Question: And the IC50 (KB)?
Answer: The IC50 was over 4 µg/mL.

Question: Which results are given for CC[C@H](C)[C@@H]1NC(=O)c2csc(n2)[C@@H](C(C)C)NC(=O)[C@H]2N=C(O[C@@H]2C)[C@H]([C@@H](C)CC)NC(=O)c2csc(n2)[C@@H](C(C)C)NC(=O)[C@@H]2COC1=N2 [PATELLAMIDE A]?
Answer: Activity (MC-38 [14]): 160 Zone units; Activity (L1210 [15]): 150 Zone units; Activity [16]: 0 Zone units; IC50 (KB): 3 µg/mL (≈ 4.04 µM)

Question: For CCC(C)OC(=O)C1(C)CCC(C)CC(O)C(C)C(=O)C(C)/C=C\CC(C)C(O)C(O)C(OC)/C(C)=C/C=C/C(C)C(C(C)(O)/C=C(/C)Cc2csc(C3(C)OC3C)n2)OC1=O (centres undefined) [PATELLAZOLE A], which Activity (L1210 [11]) is on record?
Answer: The Activity was 240 Zone units.

Question: What about the Activity (MC-38 [12]) of the same molecule?
Answer: Its Activity is 320 Zone units.

Question: And the Activity [13]?
Answer: The Activity was 370 Zone units.

Question: What about the IC50 (KB) of the same molecule?
Answer: Its IC50 is 0.01 µg/mL (≈ 0.0113 µM).
